In US12012403B2, “Aryl sulfonyl compounds as CCR6 inhibitors” (CHEMOCENTRYX, INC., priority 2021, dated 2024) one finds IC50 data, which are given here for 5 molecules.

pIC50: −log10 of the molar value.

This assay deals with T1, human CCR6 (Homo sapiens, UniProt P51684).
T1 construct: expressed in transfected cells; host or cells: Ba/F3 cells (murine pro-B line), hCCR6-transfected, CMV promoter, sodium butyrate induction
T1 sequence (P51684 1-374): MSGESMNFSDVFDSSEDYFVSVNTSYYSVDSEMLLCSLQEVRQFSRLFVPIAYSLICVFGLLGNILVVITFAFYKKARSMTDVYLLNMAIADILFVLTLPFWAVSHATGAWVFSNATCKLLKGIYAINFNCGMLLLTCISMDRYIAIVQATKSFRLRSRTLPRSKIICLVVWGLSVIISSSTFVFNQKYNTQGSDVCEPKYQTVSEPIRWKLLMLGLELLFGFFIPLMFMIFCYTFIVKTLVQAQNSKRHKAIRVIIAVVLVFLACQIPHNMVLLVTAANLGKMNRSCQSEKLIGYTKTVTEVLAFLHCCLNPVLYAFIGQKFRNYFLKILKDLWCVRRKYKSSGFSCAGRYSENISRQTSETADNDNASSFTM
As to the kind of experiment: Migration (chemotaxis) assay, hCCR6-transfected Ba/F3 cells toward CCL20. The format is cell-based. Conditions: hCCR6-transfected Ba/F3 cells in human serum; recombinant human CCL20 10 nM; 37° C. 45 minutes; read-out: Potency (IC50 value in the migration assay). The method in brief: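 Ba/F3 cells stably transfected with human CCR6 (CMV promoter), pre-induced 24 hr with sodium butyrate, suspended at 4 million/ml in human serum with test compound serially diluted from 10 μM final. Migration through 5-μm polycarbonate membrane toward 10 nM CCL20 (EC50) for 45 min at 37 °C; migrated cells quantified by CyQUANT fluorescence.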
With `NC(=O)C1CC12CCN(c1ccc(S(=O)(=O)N3CCC(Nc4ccc(C(F)(F)F)cn4)CC3)cc1)CC2` (centres unmarked) [Example 1.137], the pIC50 is 5.00 to 7.00.

In the case of `NC(=O)N1CCC2(CC1)C(=O)Nc1ccc(-c3ccc(S(=O)(=O)N4CCC(Nc5ccc(C(F)(F)F)cn5)CC4)cc3)cc12` [Example 1.025], the pIC50 was 7.00 to 8.30.

For `O=S(=O)(c1ccc(C2=CCOCC2)cc1)N1CCC(Nc2ccc(C(F)(F)F)cn2)CC1` [Example 1.236], the pIC50 was 7.00 to 8.30. As to `O=C1Cc2ccc(-c3ccc(S(=O)(=O)N4CCC(Nc5ccc(C(F)(F)F)cn5)CC4)cc3)cc2N1` [Example 1.084], the pIC50 is 7.00 to 8.30.

For `CC(C)(C)OC(=O)N[C@@H]1CCN(c2ccc(S(=O)(=O)N3CCC(Nc4ccc(C(F)(F)F)cn4)CC3)cc2)C1` [Example 1.212], the pIC50 is 5.00 to 7.00.
